This assay concerns the target T1, AAC(6′)-Ie-APH(2′′)-Ia (Staphylococcus aureus, UniProt P0A0C1).
T1 construct: gene aacA-aphD; purified bifunctional enzyme (AAC and APH domains)
Put plainly: absorbance at […] nm, DTNB detection of released CoA-SH. The class given is biochemical. Particulars: AAC activity; co-substrate gentamicin 112 µg/mL.

Each structure is given as a SMILES string.

T1 sequence (P0A0C1 whole entry, the tested form may be a part): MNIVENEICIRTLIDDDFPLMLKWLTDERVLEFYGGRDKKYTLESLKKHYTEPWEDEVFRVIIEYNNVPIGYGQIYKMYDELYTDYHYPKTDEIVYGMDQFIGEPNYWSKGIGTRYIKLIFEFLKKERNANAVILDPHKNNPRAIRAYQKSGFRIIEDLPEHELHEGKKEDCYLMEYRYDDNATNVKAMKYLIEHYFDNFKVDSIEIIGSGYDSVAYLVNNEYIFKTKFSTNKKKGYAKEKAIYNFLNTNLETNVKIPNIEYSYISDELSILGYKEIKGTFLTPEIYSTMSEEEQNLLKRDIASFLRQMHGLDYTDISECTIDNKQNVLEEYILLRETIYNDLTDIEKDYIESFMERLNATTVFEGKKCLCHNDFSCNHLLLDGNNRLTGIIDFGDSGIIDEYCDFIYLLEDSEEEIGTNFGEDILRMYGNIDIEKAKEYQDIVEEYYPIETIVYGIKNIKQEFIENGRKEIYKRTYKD

`CC(=O)SCCNC(=O)CCNC(=O)[C@H](O)C(C)(C)COP(=O)(O)OP(=O)(O)OC[C@H]1O[C@@H](n2cnc3c(N)ncnc32)[C@H](O)[C@@H]1OP(=O)(O)O` [acetyl CoA]: the “absorbance at 412 nm, DTNB detection of released CoA-SH” value is on record as “CoA–SH that is derived from acetyl CoA after antibiotic acetylation”.

The values are drawn from PMC7235042, “Venturicidin A, A Membrane-active Natural Product Inhibitor of ATP synthase Potentiates Aminoglycoside Antibiotics” (Scientific Reports, 2020).
